The values that follow come from patent US20170081383A1, “MELANOCORTIN ANALOGS HAVING ENHANCED ACTIVITY AND TRANSPORT” (Tensive Controls Inc., priority 2012, published 2017).

Data set [1] has as its system LPS-induced cachexia in rats. Put plainly: Lipopolysaccharide (LPS)-induced cachexia assay. Format: in vivo, rat. Particulars: for food intake, 24 hours after LPS challenge / body weight (percent of pre-LPS baseline), 24 hours after LPS challenge: 0.2 mg/kg intraperitoneally; for food intake, 24 hours after LPS challenge: FIG. 8A; for body weight (percent of pre-LPS baseline), 24 hours after LPS challenge: FIG. 8B; for anti-cachectic activity after ICV (IVt) administration (in words): intracerebroventricular administration; for anti-cachectic activity after ICV (IVt) administration (in words) / blood-brain barrier transport (concluded from peripheral vs ICV activity): LPS model; for peripheral (IP) anti-cachexia activity, feeding (in words): peripheral / intraperitoneal administration after LPS. Here is the method:
The LPS model uses rats were maintained on a 12 h light/dark schedule with ad libitum access to food and water. Animals were handled daily for a minimum of three consecutive days to decrease non-specific handling stress. On the day of the experiment, individually housed animals received intraperitoneal injections of LPS dissolved in 0.5% low-endotoxin BSA, 0.9% saline or 0.5% BSA in 0.9% saline alone, and were returned to their home cage. The drug or control was administered (ICV, IP, or PO, depending on the type of study) 1-hour after LPS injection.
In the experiments described herein, a series of melanocortin receptor antagonist peptides were examined in a bacterial endotoxin inducing cachexia assay. For this assay, a rat is challenged with a single peripheral injection of lipopolysaccharide (LPS). LPS is a heat-stable lipo-polysaccharide, the major component of the outer membrane (capsule) of gram negative bacteria. In non-capsulated strains, it appears as a cell surface […]. LPS produces a strong immune response, including secretion of the proinflammatory cytokines Tumor Necrosis Factor α (TNFα) and interleukin-1 (IL-1). Proinflammatory cytokines are known factors that induce cachexia.
Rats are maintained on a 12-hour light/dark cycle. Animals are handled daily for a minimum of 5 consecutive days to acclimate them to the handling required for the experiment. […] On the day of the experiment, individually housed animals receive intraperitoneal (IP) injections of LPS dissolved in 0.5% low-endotoxin BSA, 0.9% saline or 0.5% BSA in 0.9% saline alone, and returned in their home cage. Melanocortin receptor antagonist peptides were administered (IP or by gavage, depending on the type of study) one hour after the LPS injection. The extent of cachexia is measured by the reduction in food intake, measured every two hours. The cachexia typically lasts only a single day. However, rats lose up to 5% of their body weight during a 12-hour light cycle, making up this loss plus food needed for normal growth during the 12-hour dark cycle. Thus, failure to eat appropriately during a single dark cycle is determinable from the animal's weight and any changes thereof.
A series of melanocortin receptor antagonist peptides were examined in a bacterial toxin inducing cachexia assay. In this assay, a rat was challenged with a single peripheral injection of lipopolysaccharide (LPS), a bacterial toxin that rapidly induces acute cachexia. The extent of cachexia was measured as a reduction in food intake, measured every two hours. The cachexia typically lasts only a single day.

Another data set concerns Lewis sarcoma rat. Put plainly: Reversal of cachexia-induced lethargy. The conditions noted are these: once-daily peripheral dosing for 48 hours (2 IP doses), irrespective of tumor load. It is filed as in vivo. The text has this:
In animals and humans, cachexia produces “lethargy,” i.e., the aversion to activity. Grossberg et al., J. Neurosci. 31(31): 11376-11386. […] This therapeutic effect is dependent on a stabilized melanocortin antagonist C-terminal extension. Video recordings characterized control animal behavior as neo-exploratory movement about the cage, i.e., repeated “sniffing” the air to presumably sample odors (e.g., neighboring animals), grooming, and intermittent bouts of eating and drinking. Caldecott-Hazard et al., J. Neurosci. 8(6): 1951-1961 (1988).
The animal typically remains in one position for an extended period of time (>1 minute). Occasionally it will change position, assuming the new position for an extended period. The rats show no grooming behavior, evident in the appearance of their coat and eyes.

A short description of data set [2]: TCMCB07 in rat plasma and cerebrospinal fluid after IV administration (HPLC fluorescence, mass spectrometry). Format: in vivo. Here is the method:
Urethane-Anesthetized Rats Had Polyethylene (PE)-Tubing Cannulas Placed in their Femoral artery and vein. Each rat was then placed in a small animal stereotaxic apparatus, their head fixed in the lateral plane with ear bars, and their head placed in a 45-50° downward angle by placing their nose below an adjustable tooth bar. This position placed the animal's cistern magna at the highest vertical position of its body. The dural covering of the dorsal cistern magna was exposed.
A stainless steel cannula, with one end attached to PE-tubing, was placed in a stereotaxic tower cannula holder (open end down). The free end of the PE-tubing was attached to a 100 μL gas-tight Hamilton syringe with a 28-gauge needle. The cannula was adjusted to a position that approximated the middle of the exposed cistern magna, and the cannula lowered until it touched the dura mater. […] The dura has a degree of flexibility such that the cannula can depress it before it pierces it. After it was pierced, the dural rises to its original position, placing the cannula tip within the cistern magna space. The position of the cannula tip was again noted on the vertical axis of the tower. Typically, the cannula tip was 1.6-1.8 mm below the original dura-touch position. The cannula tip was then adjusted, if needed, to 1.8 mm below the dura, and the cannula sealed to the dura using skin glue. Samples of cisternal cerebrospinal (CSF) fluid were removed through cannula and PE-tubing by slowly drawing on the Hamilton syringe.
For the experimental procedure, baseline samples of blood and CSF were taken (“0” time points), followed by the IV administration of 750 nmol/kg TCMCB07. Samples of CSF (50 μL) and blood (1 mL) were collected at the following time points: 0, 5, 15, 30, and 90 minutes. […] Both CSF and plasma were stored at −80° C. until analyzed by (HPLC) with spectrofluoremetric monitoring at 230 nm excitation and […] emission (the fluorescence maximum for the Nal residue). […]

The subject of data set [3] is urethane-anesthetized rats. The data set is described as follows: Cardiovascular activity of melanocortin peptides (MAP, heart rate, ECG).
Description: These studies were performed in urethane-anesthetized rats, since anesthesia is required for six-lead ECG monitoring. […] Initial selection of doses was guided by FDA exploratory IND studies with a recommendation for at least a 100-fold excess of the human dose.
A further data set deals with Lewis sarcoma rat model. The data set is described as follows: Lewis sarcoma rat model of cancer cachexia. It is filed as in vivo. Here is the method: This sarcoma is an aggressive form of cancer that produces significant cachexia. Popp et al., Cancer 49(6): 1212-1220 (1982). In the protocol, “treatment” began 8-days after tumor implantation, with a significant decrease in food intake from baseline. Body composition was determined by NMR prior to tumor implantation, and on the final day of the experiment after tumor resection, by ECHO MRI (NMR). Tumor implantation produces cachexia on or about the 6th day. Melanocortin drug therapy or saline was begun after day 8 and continued through day 12.
Prior to tumor implantation, both groups (drug or saline) had similar food intake (˜14 g/day). See FIGS. 2A and B. After tumor implantation, in saline-treated/tumor bearing controls, food intake decreased 35% to 9 g/day by day 8. FIGS. 3A-F. However, treatment with TCMCB01 reversed anorexia to a food intake similar to the control state.

The next data set has as its system cachexia models. Particulars: Marks et al., Cancer Res. 2001; cited from earlier work.

“Also recorded” adds a separate entry of the source. Positions of bridges follow the written chain, without caps; N, C: chain ends. Non-standard residues stand in square brackets, D forms with d. Residues, ends and D or L forms follow the SMILES beside them. No end group written: not given here. β2Val = β2-Val (beta2-Val), beta-amino acid; d2Nal = N[C@H](Cc1ccc2ccccc2c1)C(=O)O; β3hP = O=C(O)C[C@@H]1CCCN1; Nle = CCCC[C@H](N)C(=O)O

For “Ac-Nle-c[Asp-Pro-D-Nal(2′)-Arg-Trp-Lys]-β^3-Pro-β^2-Val-NH2 (Ac-[Nle]DP[d2Nal]RWK[β3hP][β2Val]-NH2; lactam 2-7) [TCMCB05]”, in data set [1], the “food intake, 24 hours after LPS challenge” value was “stimulated appetites”; the “body weight (percent of pre-LPS baseline), 24 hours after LPS challenge” value is “significantly gained weight”; the “anti-cachectic activity after ICV (IVt) administration (in words)” value (“anti-cachectic activity after ICV” for short) is “molar activity equivalent to TCMCB02”; the “peripheral (IP) anti-cachexia activity, feeding (in words)” value (from here on “peripheral (IP) anti-cachexia activity”) is listed as “had IP anti-cachexia activity; also recorded: had peripheral anti-cachexia activity; also recorded: Only TCMCB07 produced a significant increase in feeding”. Also, the “molar activity relative to TCMCB02” value in data set [1] (ICV administration, LPS-induced cachexia) was found to be 10 fold. Also, the “behavior of cachectic (lethargic) rats” value in the data set on Lewis sarcoma rat is “restored “normal” behavior to rats”.

Consider `CCCC[C@H](NC(C)=O)C(=O)N[C@H]1CC(=O)NCCCC[C@@H](C(=O)N[C@@H](C(=O)N2CCC[C@@H]2C(N)=O)C(C)C)NC(=O)[C@H](Cc2c[nH]c3ccccc23)NC(=O)[C@H](CCCNC(=N)N)NC(=O)[C@@H](Cc2ccc3ccccc3c2)NC(=O)[C@@H]2CCCN2C1=O` [TCMCB07, Ac-Nle-c[Asp-Pro-D-Nal(2′)-Arg-Trp-Lys]-D-Val-D-Pro-NH2] (Ac-[Nle]DP[d2Nal]RWK[dV][dP]-NH2; lactam 2-7), for which, in data set [1], the “food intake, 24 hours after LPS challenge” value is listed as “stimulated appetites”; the “body weight (percent of pre-LPS baseline), 24 hours after LPS challenge” value is “significantly gained weight”; the “anti-cachectic activity after ICV” value is reported as “maintained ICV activity”; the “peripheral (IP) anti-cachexia activity” value is “equivalent stimulation of feeding; also recorded: significant increase in feeding”. Further, the “peripheral (IP) LPS anti-cachectic activity relative to TCMCB02” value in data set [1] (IP) was found to be 10 fold. Also, the “oral activity / gastrointestinal transport (in words)” value in data set [1] (gavage (intra-gastric) administration, LPS cachexia) was “significant enhancement of food intake”. Also, the “activity following peripheral administration relative to TCMCB02” value in data set [1] (peripheral administration) is “about 10 times”. For the same compound, the “behavior of cachectic (lethargic) rats” value in the data set on Lewis sarcoma rat is given as “restored “normal” behavior to rats”.

For the compound `CCCC[C@H](NC(C)=O)C(=O)N[C@H]1CC(=O)NCCCC[C@@H](C(=O)N[C@@H](C(=O)N2CCC[C@@H]2C(N)=O)C(C)C)NC(=O)[C@H](Cc2c[nH]c3ccccc23)NC(=O)[C@H](CCCN=C(N)N)NC(=O)[C@@H](Cc2ccc3ccccc3c2)NC(=O)[C@@H]2CCCN2C1=O` [TCMCB07, Ac-Nle-c[Asp-Pro-D-Nal(2′)-Arg-Trp-Lys]-D-Val-D-Pro-NH2] (Ac-[Nle]DP[d2Nal]RWK[dV][dP]-NH2; lactam 2-7), in data set [1], the “blood-brain barrier transport (concluded from peripheral vs ICV activity)” value is “both gastrointestinal and blood-brain barrier transport”. Moreover, in data set [2] (5 and 30 minutes post IV 750 nmol/kg, peak height), the “proposed metabolite peak (retention time 12.9 minutes) in CSF” value is reported as “peak height increases over time; also recorded: increased cerebrospinal fluid concentration”. In data set [2] (IV 750 nmol/kg), the “transport through the blood-brain-barrier (physical evidence)” value is “direct physical evidence of TCMCB07 transport through the blood-brain-barrier”. In data set [2] (after IV 750 nmol/kg, no obvious Nal-fluorescence peak), the “presence in CSF by mass spectrometry of HPLC effluent” value was “confirmed the presence of TCMCB07 in CSF”.

Consider “Ac-Nle-c[Asp-Pro-D-Nal(2′)-Arg-Trp-Lys]-D-Thr-D-Pro-D-Thr (Ac-[Nle]DP[d2Nal]RWK[dT][dP][dT]; lactam 2-7) [TCMCB01]”, for which, in data set [1], the “blood-brain barrier transport (concluded from peripheral vs ICV activity)” value is “insufficient blood brain barrier-transport; also recorded: no blood-brain barrier transport”; the “anti-cachectic activity after ICV” value is reported as “only produced an anti-cachexia effect when given by IVt administration”; the “peripheral (IP) anti-cachexia activity” value is listed as “did not have peripheral activity”. Further, the “anti-cachectic activity compared to the parent compound, PG932” value in data set [1] (Lewis sarcoma rat model and LPS model) was “enhanced anti-cachectic activity”. Besides, in data set [3] (600 nmol, n = 5), the “Duration” value is on record as 0 min, the “Peak Heart Rate Response (BPM)” value is on record as 0/0 BPM and the “Peak MAP Response (Δ mm Hg)” value is on record as 0/0 mm Hg. In addition, the “cardiovascular and behavioral side effects (in words)” value in data set [3] (rats) was “no cardiovascular or dose-limiting behavioral side effects; also recorded: little cardiovascular activity”. Further, the “reversal of cachexia-anorexia (food intake)” value with Lewis sarcoma rat model (ICV, one time per day, 2 nmol, after day 8 through day 12) is recorded as “reversed the cachexia-anorexia of the tumor burden”. Besides, the “dose producing the feeding effect relative to that used with previous synthetic melanocortin antagonists” value with Lewis sarcoma rat model (Lewis model) is “one tenth”. Further, the “body weight after tumor implantation” value in the data set with Lewis sarcoma rat model (drug treated group vs saline controls, FIG. 4) is listed as “significantly greater than saline controls”. Also, the tumor weight in the data set on Lewis sarcoma rat model (equivalent in saline-treated and drug-treated group (p=0.2), FIG. 5) is about 40 g. Also, the “anti-cachectic response compared with AGRP and SHU9119” value in the data set with Lewis sarcoma rat model (food intake, Lewis sarcoma rats, FIG. 3) is “as potent as the natural melanocortin system inhibitor Agouti Related Protein (AGRP), and significantly more potent than SHU9119; also recorded: equivalent to AGRP”. The “anti-cachectic effect greater than AGRP” value with Lewis sarcoma rat model (related study (not shown), Lewis model) is reported as about 20%. Moreover, the “lean body mass (NMR after tumor excision)” value in the data set with Lewis sarcoma rat model (statistical significance only p=0.05, FIG. 6) is on record as “increased lean body mass”.

Turning to “AGRP: endogenous melanocortin system inhibitor (agouti-related protein); naturally occurring melanocortin antagonist protein (SSRRCVRLHESCLGQQVPCCDPCATCYCRFFNAFCYCRKLGTAMNPCSRT; ends and bridges not checked; cysteine pairing not given here; UniProt O00253 83-132, looked up)”, the “reversal of cachexia-anorexia syndrome” value in the data set with cachexia models is 100%.
